Results on four compounds are retold here after patent US6818657B1, “Bioprecursors of a retinoic derivative and pharmaceutical and/or cosmetic compositions” (Pierre Fabre Dermo-Cosmetique, priority 1999, dated 2004).

The target of data set [1] is T1, recombinant β-glucocerebrosidase (Homo sapiens, UniProt P04062).
T1 construct: histidine tail (His tag) (C); made in house
T1 sequence (P04062 40-536): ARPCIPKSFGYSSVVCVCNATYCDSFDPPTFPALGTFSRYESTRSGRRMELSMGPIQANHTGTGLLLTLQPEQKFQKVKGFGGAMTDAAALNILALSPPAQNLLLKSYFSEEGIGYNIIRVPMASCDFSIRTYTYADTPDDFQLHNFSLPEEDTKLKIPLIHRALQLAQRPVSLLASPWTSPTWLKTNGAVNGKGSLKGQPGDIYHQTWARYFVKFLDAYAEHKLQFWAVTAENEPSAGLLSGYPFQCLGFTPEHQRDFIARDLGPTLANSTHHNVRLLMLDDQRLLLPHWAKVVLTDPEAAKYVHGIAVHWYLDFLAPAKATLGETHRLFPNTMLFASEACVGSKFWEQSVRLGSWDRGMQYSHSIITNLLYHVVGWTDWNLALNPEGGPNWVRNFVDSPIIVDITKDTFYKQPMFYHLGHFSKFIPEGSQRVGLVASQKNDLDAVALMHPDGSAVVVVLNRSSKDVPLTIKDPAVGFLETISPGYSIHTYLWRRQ
As to the kind of experiment: Michaelis constants (Km) and Vm of recombinant β-glucocerebrosidase for pseudosubstrates. Format: biochemical. As to conditions: phthalate buffer pH 5.6 (0.025 M), taurocholate 5 mM, purified β-glucocerebrosidase, 30 minutes incubation. How it is done:
After confirming that β-glucocerebrosidase is expressed in the keratinocytes, we produced a recombinant enzyme in the baculovirus system. A histidine tail was added to the COOH end of the protein to allow it to be purified by affinity column chromatography.
Thus, we were able to determine the Michaelis constants (Km) and the Vm values of the recombinant β-glucocerebrosidase in particular for the retinoic acid-arbutin glucoconjugate. The kinetics measurements are carried out in a phthalate buffer at pH 5.6 (0.025 M) containing taurocholate (5 mM), purified β-glucocerebrosidase and the test conjugate at various concentrations. The incubation lasts 30 minutes and the amount of hydroquinone-retinoic acid conjugate released is assayed by HPLC. The table below gives the results obtained. […] As regards their rates of hydrolysis, these are lower and thus allow effects to be obtained over time.

The nature of data set [2]: Distribution in the stratum corneum after topical application. Format: in vivo.

As to `Cc1cc(=O)oc2cc(O[C@@H]3O[C@H](CO)[C@@H](O)[C@H](O)[C@H]3O)ccc12` [4-Methylumbelliferyl-glucopyranoside, 4-methyl-umbelliferyl-β-D-glucopyranoside], in data set [1], the Michaelis-Menten constant (Km) (in general, the substrate concentration at which the rate is half of its maximum) stood at 2800 ± 700 µM and the “Vm weighted by the amount of soluble proteins” value came to 4000 ± 1000 nmol/h/mg.

On to `CC1=C(/C=C/C(C)=C/C=C/C(C)=C/C(=O)O)C(C)(C)CCC1` [retinoic acid], for which the “location in the stratum corneum after topical application” value in data set [2] (in vivo) was “accumulate in the upper layers of the stratum corneum after topical application and are removed by desquamation”.

For the compound `Cc1c(C)c2c(c(C)c1O)CC[C@@](C)(CCC[C@H](C)CCC[C@H](C)CCCC(C)C)O2` [vitamin E (α-tocopherol), α-tocopherol], the “location in the stratum corneum after topical application” value in data set [2] (topical application, same excipient) was “accumulate in the upper layers of the stratum corneum after topical application and are removed by desquamation”.

On to `Cc1cc(O[C@@H]2O[C@H](CO)[C@@H](O)[C@H](O)[C@H]2O)cc2c1O[C@](C)(CCC[C@H](C)CCC[C@H](C)CCCC(C)C)CC2` [δ-Tocopheryl-glucopyranoside], for which, in data set [1], the “Vm weighted by the amount of soluble proteins” value was determined as 453 ± 20 nmol/h/mg. In addition, the Michaelis-Menten constant (Km) in data set [1] (HPLC assay) was found to be 7 ± 1 µM.
